What was measured:
[1] = target: T1, Fatty-acid amide hydrolase 1 (Homo sapiens) (UniProt O00519); experiment: (§1) Binding affinity to FAAH in human cortical homogenates; settings: tested as the 3H-labelled form
T1 sequence (whole entry): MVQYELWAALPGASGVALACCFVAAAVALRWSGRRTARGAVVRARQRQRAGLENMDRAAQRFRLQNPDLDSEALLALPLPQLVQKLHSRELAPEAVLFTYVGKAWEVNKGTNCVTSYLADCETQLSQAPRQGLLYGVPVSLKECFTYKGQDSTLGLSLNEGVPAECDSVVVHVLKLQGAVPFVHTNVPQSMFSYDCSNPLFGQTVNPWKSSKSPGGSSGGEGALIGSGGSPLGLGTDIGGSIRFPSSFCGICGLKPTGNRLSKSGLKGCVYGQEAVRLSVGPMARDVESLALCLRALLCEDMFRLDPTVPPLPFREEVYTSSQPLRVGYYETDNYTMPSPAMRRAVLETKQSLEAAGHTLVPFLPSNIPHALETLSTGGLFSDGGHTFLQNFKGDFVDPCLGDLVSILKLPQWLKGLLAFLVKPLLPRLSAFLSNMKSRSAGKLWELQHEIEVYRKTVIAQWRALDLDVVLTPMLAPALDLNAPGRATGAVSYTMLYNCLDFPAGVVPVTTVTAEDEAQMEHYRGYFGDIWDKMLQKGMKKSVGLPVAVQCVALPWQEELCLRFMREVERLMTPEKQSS

Macaca mulatta [2] = organism: Macaca mulatta; experiment: (§2) Binding affinity to FAAH in rhesus monkey cortical homogenates; type: tissue-based; settings: tested as the 3H-labelled form
[3] = Ratio of drug level in brain to plasma in rat at 2 mg/kg, po after 2 hrs; type: ADME, organism-based; parameters: dose 2 mg/kg, route oral; settings: read-out: BPR
Brain [4] = experiment: Drug uptake in rat brain at 2 mg/kg, po after 2 hrs; type: ADME, organism-based; parameters: dose 2 mg/kg, route oral; settings: in vivo
[5] = Activity at human P-glycoprotein; type: ADME
[6] = Activity at rat P-glycoprotein; type: ADME
Cannabinoid receptor 2 = Cannabinoid receptor 2 (Homo sapiens, UniProt P34972); experiment: Inhibition of CB2 receptor (unknown origin)
Cannabinoid receptor 2, sequence (P34972 whole entry): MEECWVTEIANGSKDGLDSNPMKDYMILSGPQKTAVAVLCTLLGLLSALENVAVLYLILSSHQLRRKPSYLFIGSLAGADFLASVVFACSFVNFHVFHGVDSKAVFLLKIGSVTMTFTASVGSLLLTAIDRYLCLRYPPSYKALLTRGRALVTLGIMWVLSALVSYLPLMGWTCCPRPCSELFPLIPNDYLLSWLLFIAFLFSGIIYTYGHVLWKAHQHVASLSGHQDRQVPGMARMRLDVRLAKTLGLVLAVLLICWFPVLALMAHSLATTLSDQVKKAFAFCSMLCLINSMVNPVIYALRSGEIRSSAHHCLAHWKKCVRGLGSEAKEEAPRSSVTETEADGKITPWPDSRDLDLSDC

Cytochrome P450 3A4 = Cytochrome P450 3A4 (Homo sapiens, UniProt P08684); experiment: Inhibition of CYP3A4 (unknown origin); type: ADME
Cytochrome P450 3A4, sequence (P08684 whole entry): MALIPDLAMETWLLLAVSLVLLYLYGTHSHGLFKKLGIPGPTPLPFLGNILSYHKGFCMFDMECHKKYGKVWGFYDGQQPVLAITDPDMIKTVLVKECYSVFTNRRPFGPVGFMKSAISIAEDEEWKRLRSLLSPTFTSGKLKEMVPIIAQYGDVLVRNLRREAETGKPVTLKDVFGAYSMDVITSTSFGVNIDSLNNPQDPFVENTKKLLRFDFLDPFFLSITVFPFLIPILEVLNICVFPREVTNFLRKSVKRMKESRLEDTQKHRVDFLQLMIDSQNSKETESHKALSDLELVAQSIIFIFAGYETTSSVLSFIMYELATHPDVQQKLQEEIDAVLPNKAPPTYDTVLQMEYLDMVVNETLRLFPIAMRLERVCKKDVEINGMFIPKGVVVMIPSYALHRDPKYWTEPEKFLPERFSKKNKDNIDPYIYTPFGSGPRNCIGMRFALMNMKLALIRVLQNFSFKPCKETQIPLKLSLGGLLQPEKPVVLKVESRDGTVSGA

Cannabinoid receptor 1 = Cannabinoid receptor 1 (Homo sapiens, UniProt P21554); experiment: Inhibition of CB1 receptor (unknown origin)
Cannabinoid receptor 1, sequence (P21554 whole entry): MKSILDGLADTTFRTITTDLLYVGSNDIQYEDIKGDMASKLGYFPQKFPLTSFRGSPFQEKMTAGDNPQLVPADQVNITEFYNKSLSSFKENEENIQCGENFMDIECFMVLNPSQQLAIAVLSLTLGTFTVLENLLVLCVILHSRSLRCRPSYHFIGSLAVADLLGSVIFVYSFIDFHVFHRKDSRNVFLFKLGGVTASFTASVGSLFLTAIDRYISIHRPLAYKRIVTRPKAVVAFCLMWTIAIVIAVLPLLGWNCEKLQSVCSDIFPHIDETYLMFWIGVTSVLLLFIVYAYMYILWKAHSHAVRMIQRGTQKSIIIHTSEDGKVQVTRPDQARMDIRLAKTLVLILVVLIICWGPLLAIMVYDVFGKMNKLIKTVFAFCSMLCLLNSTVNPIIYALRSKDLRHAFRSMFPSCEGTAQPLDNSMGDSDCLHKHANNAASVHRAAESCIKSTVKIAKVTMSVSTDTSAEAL

[7] = target: Voltage-gated inwardly rectifying potassium channel KCNH2 (Homo sapiens, UniProt Q12809); experiment: Inhibition of human ERG
Voltage-gated inwardly rectifying potassium channel KCNH2, sequence (Q12809 whole entry): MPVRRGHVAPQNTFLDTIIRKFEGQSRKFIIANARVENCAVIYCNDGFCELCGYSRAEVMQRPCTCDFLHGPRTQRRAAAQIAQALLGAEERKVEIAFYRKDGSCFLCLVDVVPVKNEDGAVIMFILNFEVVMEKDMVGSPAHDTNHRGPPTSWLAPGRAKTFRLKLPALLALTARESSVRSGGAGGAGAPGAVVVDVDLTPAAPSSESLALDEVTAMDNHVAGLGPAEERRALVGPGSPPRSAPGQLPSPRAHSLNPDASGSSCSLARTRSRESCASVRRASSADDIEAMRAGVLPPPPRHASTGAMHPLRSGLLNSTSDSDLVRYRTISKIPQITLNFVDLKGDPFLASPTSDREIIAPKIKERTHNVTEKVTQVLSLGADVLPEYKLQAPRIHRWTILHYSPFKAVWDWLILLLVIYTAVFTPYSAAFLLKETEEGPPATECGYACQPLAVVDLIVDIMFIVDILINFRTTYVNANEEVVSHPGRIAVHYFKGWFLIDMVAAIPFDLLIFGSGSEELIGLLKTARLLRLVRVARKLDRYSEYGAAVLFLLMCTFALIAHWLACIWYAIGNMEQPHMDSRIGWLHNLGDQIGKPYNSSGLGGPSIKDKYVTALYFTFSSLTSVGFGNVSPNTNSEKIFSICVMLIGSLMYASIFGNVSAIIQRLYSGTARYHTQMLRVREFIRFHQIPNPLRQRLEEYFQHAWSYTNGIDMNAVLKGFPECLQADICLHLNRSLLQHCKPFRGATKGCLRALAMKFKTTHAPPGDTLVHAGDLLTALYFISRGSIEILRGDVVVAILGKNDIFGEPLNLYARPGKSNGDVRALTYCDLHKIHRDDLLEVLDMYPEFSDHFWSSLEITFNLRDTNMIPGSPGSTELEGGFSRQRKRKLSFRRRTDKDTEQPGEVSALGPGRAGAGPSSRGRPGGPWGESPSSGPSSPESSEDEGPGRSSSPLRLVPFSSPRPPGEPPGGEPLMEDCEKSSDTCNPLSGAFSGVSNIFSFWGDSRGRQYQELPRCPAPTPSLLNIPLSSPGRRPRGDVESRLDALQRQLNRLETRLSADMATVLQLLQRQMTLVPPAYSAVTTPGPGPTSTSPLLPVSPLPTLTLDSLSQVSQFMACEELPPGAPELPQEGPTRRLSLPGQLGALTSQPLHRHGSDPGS

[8] = Inhibition of L-type calcium channel diltiazem binding site (unknown origin); parameters: species or system Homo sapiens
Phosphodiesterase 4 = Phosphodiesterase 4 (Homo sapiens, UniProt P27815+Q08499+Q07343+Q08493); experiment: Inhibition of phosphodiesterase PDE4 (unknown origin); type: protein assay
Acetylcholinesterase = Acetylcholinesterase (Homo sapiens, UniProt P22303); experiment: Inhibition of acetyl cholinesterase (unknown origin)
Acetylcholinesterase, sequence (P22303 whole entry): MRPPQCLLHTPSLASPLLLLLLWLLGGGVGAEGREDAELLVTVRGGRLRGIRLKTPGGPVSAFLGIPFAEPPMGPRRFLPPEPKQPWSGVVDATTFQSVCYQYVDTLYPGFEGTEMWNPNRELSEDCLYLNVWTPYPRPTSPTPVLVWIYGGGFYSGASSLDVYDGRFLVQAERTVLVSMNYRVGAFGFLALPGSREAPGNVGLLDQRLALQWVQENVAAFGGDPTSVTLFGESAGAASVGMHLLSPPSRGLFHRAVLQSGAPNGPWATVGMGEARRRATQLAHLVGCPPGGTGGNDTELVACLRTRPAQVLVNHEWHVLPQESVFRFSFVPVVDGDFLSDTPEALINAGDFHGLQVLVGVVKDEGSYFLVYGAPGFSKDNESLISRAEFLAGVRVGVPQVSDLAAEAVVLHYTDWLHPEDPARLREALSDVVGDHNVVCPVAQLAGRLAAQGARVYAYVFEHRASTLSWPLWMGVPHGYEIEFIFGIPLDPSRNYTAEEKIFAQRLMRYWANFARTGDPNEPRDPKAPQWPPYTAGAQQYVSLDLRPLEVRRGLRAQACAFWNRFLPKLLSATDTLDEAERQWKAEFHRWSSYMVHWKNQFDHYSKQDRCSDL

Macaca mulatta [9] = organism: Macaca mulatta; experiment: Inhibition of FAAH in rhesus monkey whole blood; type: tissue-based
[10] = target: T1, Fatty-acid amide hydrolase 1 (Homo sapiens); experiment: Inhibition of FAAH in human whole blood
[11] = Lipophilicity, log D of the compound at pH 7.3 by HPLC analysis; type: physicochemical; settings: buffer
[12] = target: T2, Fatty-acid amide hydrolase 1 (Rattus norvegicus, UniProt P97612); experiment: Inhibition of rat FAAH expressed in CHO cell lysates assessed as arachidonyl-7-amino-4-methylcoumarin amide hydrolysis to 7-amino 4-methyl coumarin preincubated for 15 mins prior to substrate addition measured after 1 to 3 hrs by fluorescence assay; type: cell-free
T2 sequence (P97612 whole entry): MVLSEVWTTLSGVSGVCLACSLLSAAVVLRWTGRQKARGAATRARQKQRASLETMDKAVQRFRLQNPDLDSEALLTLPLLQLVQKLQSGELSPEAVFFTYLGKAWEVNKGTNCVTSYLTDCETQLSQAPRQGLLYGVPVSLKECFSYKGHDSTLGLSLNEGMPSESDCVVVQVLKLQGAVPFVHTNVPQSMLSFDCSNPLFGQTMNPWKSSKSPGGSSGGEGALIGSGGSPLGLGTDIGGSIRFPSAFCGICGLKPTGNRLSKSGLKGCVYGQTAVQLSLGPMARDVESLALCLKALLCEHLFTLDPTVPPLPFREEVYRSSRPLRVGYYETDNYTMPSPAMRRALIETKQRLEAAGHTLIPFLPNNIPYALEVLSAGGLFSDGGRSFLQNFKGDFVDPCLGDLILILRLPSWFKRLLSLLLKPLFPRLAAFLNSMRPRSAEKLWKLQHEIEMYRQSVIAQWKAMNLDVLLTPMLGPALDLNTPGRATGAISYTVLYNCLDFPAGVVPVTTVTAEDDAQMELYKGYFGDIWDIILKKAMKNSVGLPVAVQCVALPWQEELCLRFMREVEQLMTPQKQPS

[13] = Inhibition of rhesus monkey FAAH expressed in CHO cell lysates assessed as arachidonyl-7-amino-4-methylcoumarin amide hydrolysis to 7-amino 4-methyl coumarin preincubated for 15 mins prior to substrate addition measured after 1 to 3 hrs by fluorescence assay; type: cell-free, Macaca mulatta
[14] = Solubility of the compound in saline buffer at pH 3 to 8 in presence of 10% ethanol; type: physicochemical
[15] = Chemical stability of the compound; type: physicochemical
[16] = target: T3, Fatty-acid amide hydrolase 1 (Homo sapiens, UniProt O00519); experiment: Inhibition of human FAAH expressed in CHO cell lysates assessed as arachidonyl-7-amino-4-methylcoumarin amide hydrolysis to 7-amino 4-methyl coumarin preincubated for 15 mins prior to substrate addition measured after 1 to 3 hrs by fluorescence assay; type: cell-free
T3 sequence (O00519 whole entry): T1 sequence (whole entry)

[17] = Apparent permeability of the compound; type: ADME; settings: not told
Brain [18] = experiment: Drug uptake in iv dosed rhesus monkey brain after 45 mins measured per mCi/kg by positron emission tomographic analysis; type: ADME, organism-based, Macaca mulatta; settings: in vivo, 0.75 h
Hippocampus = experiment: Drug uptake in rhesus monkey hippocampal regions at 5 mCi, iv after 45 mins by positron emission tomographic analysis; type: ADME, organism-based, Macaca mulatta; settings: in vivo, 0.75 h
Striatum = experiment: Drug uptake in rhesus monkey striatum at 5 mCi, iv after 45 mins by positron emission tomographic analysis; type: ADME, organism-based, Macaca mulatta; settings: in vivo, 0.75 h
[19] = Drug uptake in rhesus monkey frontal cortex at 5 mCi, iv after 45 mins by positron emission tomographic analysis; type: ADME, organism-based, Macaca mulatta; settings: in vivo, 0.75 h
[20] = target: T3, Fatty-acid amide hydrolase 1; experiment: as §1
[21] = as §2; type: tissue-based, Macaca mulatta
[22] = target: T2, Fatty-acid amide hydrolase 1; experiment: Binding affinity to FAAH in rat cortical homogenates

| Structure (SMILES) | logD [11] | IC50 [12] | IC50 [13] | IC50 [16] | other results |
| --- | --- | --- | --- | --- | --- |
| CN(C)C(=O)[C@H]1C[C@@H]1c1ccc(-c2ncn(C)c2Sc2ccc(Cl)cn2)cc1 [MK-3168] | 3.3 | 1.7 nM | 5.5 nM | – | Bmax [1]: 15 nM; Bmax (Macaca mulatta [2]): 21 nM; Kp at 2 h [3]: 7; Drug uptake (Brain [4]): Active; Activity [5]: Not Active; Activity [6]: Not Active; IC50 (Cannabinoid receptor 2): 150 µM; IC50 (Cytochrome P450 3A4): > 50 µM; IC50 (Cannabinoid receptor 1): 30 µM; IC50 [7]: 37 µM; IC50 [8]: 16 µM; IC50 (Phosphodiesterase 4): 9.75 µM; IC50 (Acetylcholinesterase): 1630 nM; IC90 (Macaca mulatta [9]): 29 nM; IC90 [10]: 5.5 nM; solubility [14]: soluble; Stability [15]: 24 h |
| Cn1cnc(-c2ccc([C@H]3C[C@@H]3C(N)=O)cc2)c1Sc1ccc(Cl)cn1 | 2 | 12 nM | – | – | – |
| CN(C)C(=O)[C@H]1C[C@@H]1c1ccc(-c2c(Sc3ccc(Cl)cn3)ncn2C)cc1 | – | 1390 nM | – | 839 nM | – |
| CN(C)C(=O)[C@H]1C[C@@H]1c1ccc(-c2ncn([11CH3])c2Sc2ccc(Cl)cn2)cc1 [MK-3168 C-11] | – | – | – | – | Papp [17]: 27 ×10⁻⁶ cm/s; SUV (Brain [18]): > 1 nCi/cc; Drug uptake (Hippocampus): Active; Drug uptake (Striatum): Active; Drug uptake [19]: Active |
| CN(C)C(=O)[C@H]1C[C@@H]1c1ccc(-c2nc[nH]c2Sc2ccc(Cl)cn2)cc1 | – | 145 nM | – | – | – |
| CNC(=O)[C@H]1C[C@@H]1c1ccc(-c2ncn(C)c2Sc2ccc(Cl)cn2)cc1 | 2.9 | 6 nM | – | – | – |
| [3H]C([3H])([3H])n1cnc(-c2ccc([C@H]3C[C@@H]3C(=O)N(C)C)cc2)c1Sc1ccc(Cl)cn1 | – | – | – | – | Kd [20]: 0.8 nM; Kd [21]: 1.4 nM; Kd [22]: 0.6 nM |
| Cc1nc(-c2ccc([C@H]3C[C@@H]3C(=O)N(C)C)cc2)c(Sc2ccc(Cl)cn2)n1C | – | 34 nM | – | 13.6 nM | – |
| CN(C)C(=O)[C@H]1C[C@@H]1c1ccc(-c2ncn(CCF)c2Sc2ccc(Cl)cn2)cc1 | – | 4.8 nM | – | – | – |
| CN(C)C(=O)[C@H]1C[C@@H]1c1ccc(-c2nc(C3CC3)n(C)c2Sc2ccc(Cl)cn2)cc1 | – | 106 nM | – | 48 nM | – |
| NC(=O)[C@H]1C[C@@H]1c1ccc(-c2nn(C3CC3)cc2Sc2ccc(Cl)cc2)cc1 | 3.8 | 4.2 nM | 33 nM | 5 nM | – |

More lines, main results first:

| logD [11] | IC50 [12] | IC50 [13] | IC50 [16] | Structure (SMILES) | other results |
| --- | --- | --- | --- | --- | --- |
| 3 | 4.2 nM | 7 nM | – | Cn1cnc(-c2ccc([C@H]3C[C@@H]3C(=O)NCCF)cc2)c1Sc1ccc(Cl)cn1 | – |
| 4.3 | 1.3 nM | 8.8 nM | 1.1 nM | CN(CCF)C(=O)[C@H]1C[C@@H]1c1ccc(-c2ncn(C)c2Sc2ccc(Cl)cc2)cc1 | – |
| 3.6 | 1.7 nM | – | 0.8 nM | Cn1cnc(-c2ccc([C@H]3C[C@@H]3C(N)=O)cc2)c1Sc1ccc(Cl)cc1 | – |
| 3.4 | 3 nM | 27 nM | – | CN(CCF)C(=O)[C@H]1C[C@@H]1c1ccc(-c2ncn(C)c2Sc2ccc(Cl)cn2)cc1 | – |
| 3.8 | 1.4 nM | – | 0.5 nM | CNC(=O)[C@H]1C[C@@H]1c1ccc(-c2ncn(C)c2Sc2ccc(Cl)cc2)cc1 | – |
| 4.2 | 0.4 nM | 0.8 nM | 0.5 nM | [11CH3]n1cc(Sc2ccc(Cl)cc2)c(-c2ccc3ccc(C(N)=O)nc3c2)n1 | – |
| 4 | 1.4 nM | 3.1 nM | 1 nM | Cn1cnc(-c2ccc([C@H]3C[C@@H]3C(=O)NCCF)cc2)c1Sc1ccc(Cl)cc1 | – |
| 4.2 | 0.6 nM | 1.4 nM | – | CN(C)C(=O)[C@H]1C[C@@H]1c1ccc(-c2ncn(C)c2Sc2ccc(Cl)cc2)cc1 | – |

Reference: ChEMBL document CHEMBL2385021, “Discovery of MK-3168: A PET Tracer for Imaging Brain Fatty Acid Amide Hydrolase” (ACS Med Chem Lett, 2013)
